The subject of test [1] is PBMC. In words: Immunomodulatory activity in human PBMC assessed as increase in IL-8 production at 10 uM after 24 hrs by flow cytometric analysis. In kind it is functional, cell-based. (In flow cytometry, cells or beads pass a laser one at a time.)
Test [2] relates to PBMC. In words: Immunomodulatory activity in human PBMC assessed as increase in IL-1beta production at 10 uM after 24 hrs by flow cytometric analysis. In kind it is functional, cell-based.
Test [3] concerns PBMC. The experiment in a line: Immunomodulatory activity in human PBMC assessed as increase in TNF-alpha production at 10 uM after 24 hrs by flow cytometric analysis. In kind it is functional, cell-based.
The subject of test [4] is PBMC. The experiment in a line: Immunomodulatory activity in human PBMC assessed as increase in LPS-induced IL-12p70 production at 10 uM after 24 hrs by flow cytometric analysis. In kind it is functional, cell-based.
Test [5] has as its system PBMC. The experiment in a line: Immunomodulatory activity in human PBMC assessed as increase in IL-12p70 production at 10 uM after 24 hrs by flow cytometric analysis. Type of test: functional, cell-based.
Test [6] deals with PBMC. In words: Immunomodulatory activity in human PBMC assessed as increase in LPS-induced IL-10 production at 10 uM after 24 hrs by flow cytometric analysis. In kind it is functional, cell-based.
Test [7] relates to PBMC. In words: Immunomodulatory activity in human PBMC assessed as increase in IL-6 production at 10 uM after 24 hrs by flow cytometric analysis. Type of test: functional, cell-based.
Test [8] relates to PBMC. The experiment in a line: Immunomodulatory activity in human PBMC assessed as increase in LPS-induced IL-8 production at 10 uM after 24 hrs by flow cytometric analysis. Type of test: functional, cell-based.
The target in test [9] is T1, Nucleotide-binding oligomerization domain-containing protein 1 (Homo sapiens) (UniProt Q9Y239).
T1 sequence (whole entry): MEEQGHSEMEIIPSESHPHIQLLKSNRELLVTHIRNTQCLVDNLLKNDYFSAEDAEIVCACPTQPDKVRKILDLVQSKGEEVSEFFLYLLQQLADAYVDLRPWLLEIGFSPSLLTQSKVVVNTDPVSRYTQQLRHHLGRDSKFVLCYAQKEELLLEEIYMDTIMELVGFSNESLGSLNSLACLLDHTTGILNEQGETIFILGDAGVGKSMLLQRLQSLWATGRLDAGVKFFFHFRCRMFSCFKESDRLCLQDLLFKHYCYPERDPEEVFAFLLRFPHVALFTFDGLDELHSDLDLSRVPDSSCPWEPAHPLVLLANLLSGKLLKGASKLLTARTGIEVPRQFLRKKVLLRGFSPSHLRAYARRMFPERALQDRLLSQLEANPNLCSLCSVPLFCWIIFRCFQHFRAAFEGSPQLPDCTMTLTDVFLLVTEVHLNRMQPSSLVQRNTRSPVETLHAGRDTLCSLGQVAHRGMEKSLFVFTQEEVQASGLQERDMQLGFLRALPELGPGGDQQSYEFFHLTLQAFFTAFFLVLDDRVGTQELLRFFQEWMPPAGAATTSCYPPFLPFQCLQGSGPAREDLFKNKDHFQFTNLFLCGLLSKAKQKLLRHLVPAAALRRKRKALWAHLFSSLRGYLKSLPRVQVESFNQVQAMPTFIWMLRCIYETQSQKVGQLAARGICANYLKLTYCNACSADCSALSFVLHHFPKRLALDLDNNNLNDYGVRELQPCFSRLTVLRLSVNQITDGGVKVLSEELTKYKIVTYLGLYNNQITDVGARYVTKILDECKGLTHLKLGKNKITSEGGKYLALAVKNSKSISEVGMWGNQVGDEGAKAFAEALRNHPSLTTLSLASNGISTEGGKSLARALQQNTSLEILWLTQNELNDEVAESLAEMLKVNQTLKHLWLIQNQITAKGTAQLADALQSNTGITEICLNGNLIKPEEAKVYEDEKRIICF
The experiment in a line: Agonist activity at human Nod1 expressed in human Ramos-Blue cells assessed as increase in NF-kappaB transcriptional activity at 10 uM after 24 hrs by SEAP reporter gene assay. Type of test: cell-based. (Reporter assays use an easily measured gene product as a stand-in for the process of interest.)

The subject of test [10] is PBMC. In words: Immunomodulatory activity in human PBMC assessed as increase in LPS-induced IL-1beta production at 10 uM after 24 hrs by flow cytometric analysis. Type of test: functional, cell-based.
The subject of test [11] is PBMC. The experiment in a line: Immunomodulatory activity in human PBMC assessed as increase in LPS-induced TNF-alpha production at 10 uM after 24 hrs by flow cytometric analysis. In kind it is functional, cell-based.
The target of test [12] is T1, Nucleotide-binding oligomerization domain-containing protein 1 (Homo sapiens). The experiment in a line: Agonist activity at human Nod1 expressed in human Ramos cells assessed as reduction of NF-kappaB transcriptional activity at 10 uM after 24 hrs by SEAP reporter gene assay in presence of nod1 antagonist noditinib-1. Type of test: cell-based.
For test [13], the system named is PBMC. In words: Immunomodulatory activity in human PBMC assessed as increase in IL-10 production at 10 uM after 24 hrs by flow cytometric analysis. Type of test: functional, cell-based.
The test system of test [14] is PBMC. The experiment in a line: Immunomodulatory activity in human PBMC assessed as increase in LPS-induced IL-6 production at 10 uM after 24 hrs by flow cytometric analysis. In kind it is functional, cell-based.

Activity calls are given as the source filed them. The calls are words filed in the database; no cut-off is given here.

As for `CCCCCCCCCCCC(=O)N[C@H](CCC(=O)N[C@@H](CCC[C@@H](N)C(=O)O)C(=O)O)C(=O)O`, the result (with PBMC [1]; with PBMC [2]; in the test on PBMC [3]; in the test with PBMC [6]; with PBMC [7]; in test [9]) was Active. The result (in the test with PBMC [11]; in test [12]; with PBMC [13]; in the test with PBMC [14]) was Active. In addition, the outcome with PBMC [4], in the test on PBMC [5], in the test on PBMC [8] and with PBMC [10] was inactive.

As to `CCCCCCCCCCCCN(CCCCCCCCCCCC)[C@H](CCC(=O)N[C@@H](/C=C/C[C@@H](N)C(=O)O)C(=O)O)C(=O)O`, the result (in the test with PBMC [1]; in the test on PBMC [2]; in the test on PBMC [3]; with PBMC [6]; in the test with PBMC [7]; in test [9]) was Active. In addition, the outcome (in test [12]; with PBMC [13]; in the test with PBMC [14]) was Active. Also, the result in the test on PBMC [4], with PBMC [5], in the test on PBMC [8], in the test with PBMC [10] and with PBMC [11] was inactive.

Regarding `CCCCCCCCCCCCN(CCCCCCCCCCCC)[C@H](CCC(=O)N[C@@H](C/C=C/[C@@H](N)C(=O)O)C(=O)O)C(=O)O`, the outcome (in the test on PBMC [1]; in the test with PBMC [2]; with PBMC [3]; in the test with PBMC [7]; in test [9]; in test [12]) was Active. Besides, the outcome with PBMC [13] and in the test with PBMC [14] was Active. Also, the outcome in the test on PBMC [4], in the test on PBMC [5], with PBMC [6], in the test on PBMC [8], with PBMC [10] and in the test with PBMC [11] was inactive.

`CCCCCCCCCCCC(=O)N[C@H](CCC(=O)N[C@@H](/C=C/C[C@@H](N)C(=O)O)C(=O)O)C(=O)O`: the outcome (in the test with PBMC [1]; in the test on PBMC [2]; with PBMC [3]; in the test with PBMC [6]; in the test with PBMC [7]; in test [9]) was Active. The outcome (in test [12]; in the test with PBMC [13]; with PBMC [14]) was Active. For the same molecule, the outcome in the test with PBMC [4], in the test with PBMC [5], with PBMC [8], in the test with PBMC [10] and in the test on PBMC [11] was inactive.

In the case of `CCCCCCCCCCCC(=O)N[C@H](CCC(=O)N[C@@H](C/C=C/[C@@H](N)C(=O)O)C(=O)O)C(=O)O`, the result (in the test with PBMC [1]; with PBMC [2]; in the test on PBMC [3]; in the test with PBMC [6]; in the test with PBMC [7]; in test [9]) was Active. The outcome (in the test with PBMC [11]; in test [12]; in the test with PBMC [13]; in the test with PBMC [14]) was Active. In addition, the outcome with PBMC [4], in the test with PBMC [5], in the test on PBMC [8] and with PBMC [10] was inactive.

(Values after ChEMBL document CHEMBL2434941, “Synthesis of conformationally constrained γ-D-glutamyl-meso-diaminopimelic acid derivatives as ligands of nucleotide-binding oligomerization domain protein 1 (Nod1)” (Eur J Med Chem, 2013).)
